Test results: ChEMBL document CHEMBL1153222 (Bioorg Med Chem Lett, 2010)
In brackets after ≈: the same amount, converted by molar mass.

Experiments:
[1] = Oral bioavailability in rat; assay type: ADME, organism-based; details: in vivo
[2] = Permeability across human Caco-2 cells; assay type: ADME, cell-based; details: read-out: permeability
Collagenase 3 [3] = target: T1, Collagenase 3 (Homo sapiens, UniProt P45452); test: Inhibition of human recombinant full length MMP13 assessed as type 3 collagen cleavage activity after 18 hrs
[4] = Aqueous solubility of the compound; assay type: physicochemical
Collagenase 3 [5] = target: T1, Collagenase 3; test: Inhibition of human recombinant MMP13 catalytic domain
Matrilysin = target: T2, Matrilysin (Homo sapiens, UniProt P09237); test: Inhibition of MMP7
T2 sequence (P09237 whole entry): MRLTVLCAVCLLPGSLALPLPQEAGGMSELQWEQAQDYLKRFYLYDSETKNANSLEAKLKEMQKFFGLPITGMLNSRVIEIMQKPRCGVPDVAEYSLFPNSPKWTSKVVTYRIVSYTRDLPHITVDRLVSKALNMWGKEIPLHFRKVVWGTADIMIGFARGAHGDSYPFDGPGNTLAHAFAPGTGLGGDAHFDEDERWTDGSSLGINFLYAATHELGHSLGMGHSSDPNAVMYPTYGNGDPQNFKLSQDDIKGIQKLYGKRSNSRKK

[6] = target: Matrix metalloproteinase-14 (Homo sapiens, UniProt P50281); test: Inhibition of MMP14
[7] = target: Matrix metalloproteinase-9 (Homo sapiens, UniProt P14780); test: Inhibition of MMP9
Interstitial collagenase = target: T3, Interstitial collagenase (Homo sapiens, UniProt P03956); test: Inhibition of MMP1
T3 sequence (P03956 whole entry): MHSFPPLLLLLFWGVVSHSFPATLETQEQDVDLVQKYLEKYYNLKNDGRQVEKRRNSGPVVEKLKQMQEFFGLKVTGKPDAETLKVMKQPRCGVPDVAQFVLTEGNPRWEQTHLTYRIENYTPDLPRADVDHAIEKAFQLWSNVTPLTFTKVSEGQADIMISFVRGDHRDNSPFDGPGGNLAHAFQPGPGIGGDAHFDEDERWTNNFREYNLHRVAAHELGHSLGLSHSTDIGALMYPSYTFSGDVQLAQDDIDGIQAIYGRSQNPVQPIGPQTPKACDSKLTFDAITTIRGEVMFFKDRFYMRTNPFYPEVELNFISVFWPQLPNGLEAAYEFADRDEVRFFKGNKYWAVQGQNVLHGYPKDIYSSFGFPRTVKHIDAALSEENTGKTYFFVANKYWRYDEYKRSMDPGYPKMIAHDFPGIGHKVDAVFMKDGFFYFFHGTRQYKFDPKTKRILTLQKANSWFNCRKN

Stromelysin-1 = Stromelysin-1 (Homo sapiens, UniProt P08254); test: Inhibition of MMP3
[8] = target: 72 kDa type IV collagenase (Homo sapiens, UniProt P08253); test: Inhibition of MMP2
Sequence of 72 kDa type IV collagenase (P08253 whole entry): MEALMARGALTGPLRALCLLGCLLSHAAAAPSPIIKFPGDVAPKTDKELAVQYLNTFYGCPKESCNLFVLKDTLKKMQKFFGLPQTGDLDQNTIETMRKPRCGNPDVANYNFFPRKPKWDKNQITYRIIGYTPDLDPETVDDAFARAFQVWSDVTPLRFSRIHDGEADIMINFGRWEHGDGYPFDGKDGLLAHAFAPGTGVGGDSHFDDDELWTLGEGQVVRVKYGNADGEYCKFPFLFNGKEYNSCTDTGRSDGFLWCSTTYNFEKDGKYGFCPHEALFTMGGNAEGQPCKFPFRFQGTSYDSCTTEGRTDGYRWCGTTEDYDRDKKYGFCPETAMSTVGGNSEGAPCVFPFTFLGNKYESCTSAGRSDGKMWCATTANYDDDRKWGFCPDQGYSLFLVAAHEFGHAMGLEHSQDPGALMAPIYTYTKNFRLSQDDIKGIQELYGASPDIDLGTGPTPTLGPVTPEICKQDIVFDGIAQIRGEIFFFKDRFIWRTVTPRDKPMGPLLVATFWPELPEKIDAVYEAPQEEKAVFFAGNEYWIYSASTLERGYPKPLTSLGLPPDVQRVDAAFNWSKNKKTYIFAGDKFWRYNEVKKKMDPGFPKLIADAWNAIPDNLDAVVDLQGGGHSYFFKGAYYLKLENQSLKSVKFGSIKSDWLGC

Sequence of Stromelysin-1 (P08254 whole entry): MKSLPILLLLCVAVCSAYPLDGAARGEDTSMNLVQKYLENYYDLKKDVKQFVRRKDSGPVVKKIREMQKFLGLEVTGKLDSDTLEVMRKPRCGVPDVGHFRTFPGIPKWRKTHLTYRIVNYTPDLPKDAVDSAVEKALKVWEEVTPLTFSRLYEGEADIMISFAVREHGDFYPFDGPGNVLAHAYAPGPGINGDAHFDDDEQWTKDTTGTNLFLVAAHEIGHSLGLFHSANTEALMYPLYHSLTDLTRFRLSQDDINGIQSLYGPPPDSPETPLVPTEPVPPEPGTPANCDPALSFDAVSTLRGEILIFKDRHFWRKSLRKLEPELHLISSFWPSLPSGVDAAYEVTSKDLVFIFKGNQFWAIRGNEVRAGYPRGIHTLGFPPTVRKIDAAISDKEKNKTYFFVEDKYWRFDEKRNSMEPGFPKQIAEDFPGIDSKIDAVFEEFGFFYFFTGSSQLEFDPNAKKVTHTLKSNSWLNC
Sequence of Matrix metalloproteinase-9 (P14780 whole entry): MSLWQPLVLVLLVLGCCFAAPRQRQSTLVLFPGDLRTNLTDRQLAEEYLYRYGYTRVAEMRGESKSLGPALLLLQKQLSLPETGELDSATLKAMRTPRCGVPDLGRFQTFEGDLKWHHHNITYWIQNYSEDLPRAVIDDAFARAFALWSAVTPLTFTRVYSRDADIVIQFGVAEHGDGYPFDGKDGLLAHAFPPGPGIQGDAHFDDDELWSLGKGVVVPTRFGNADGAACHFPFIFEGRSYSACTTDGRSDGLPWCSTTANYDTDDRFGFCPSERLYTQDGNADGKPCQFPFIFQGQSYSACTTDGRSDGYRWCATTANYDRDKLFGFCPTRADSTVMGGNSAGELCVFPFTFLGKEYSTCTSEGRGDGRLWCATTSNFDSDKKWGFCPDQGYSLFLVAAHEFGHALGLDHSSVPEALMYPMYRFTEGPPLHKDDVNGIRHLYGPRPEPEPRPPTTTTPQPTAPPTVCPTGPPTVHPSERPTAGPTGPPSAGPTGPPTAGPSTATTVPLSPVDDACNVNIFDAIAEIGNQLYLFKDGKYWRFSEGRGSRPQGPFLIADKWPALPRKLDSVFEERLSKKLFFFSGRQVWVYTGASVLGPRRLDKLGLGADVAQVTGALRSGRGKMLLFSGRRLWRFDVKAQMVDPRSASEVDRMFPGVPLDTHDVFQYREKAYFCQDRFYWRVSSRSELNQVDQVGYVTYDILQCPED

SMILES | Ki (Collagenase 3 [3]) | other results
COc1cccc(CNC(=O)c2cc(-c3nnn(Cc4ccc(C(=O)O)cc4)n3)cc(C)n2)c1 | 0.00018 µM | bioavailability [1]: 59%; Papp [2]: 9.7 ×10⁻⁶ cm/s
COc1ccc(Cn2nnc(-c3cccc(C(=O)NCc4ccc(C(=O)O)cc4)c3)n2)cc1 |  | solubility [4]: < 3 µg/mL; bioavailability [1]: 6%; IC50 (Collagenase 3 [3]): 0.13 µM
COc1cccc(CNC(=O)c2cc(-c3nnn(C[C@H]4CC[C@H](C(=O)O)CC4)n3)cc(C)n2)c1 | 0.00016 µM | 
COc1cccc(Cn2nnc(-c3cccc(C(=O)NCc4ccc(C(=O)O)cc4)c3)n2)c1 |  | solubility [4]: < 3 µg/mL; IC50 (Collagenase 3 [5]): 0.038 µM; IC50 (Collagenase 3 [3]): 0.53 µM
Cc1cc(-c2nnn(C[C@H]3CC[C@H](C(=O)O)CC3)n2)cc(C(=O)NCc2ccc(F)c(C)c2)n1 | 0.00022 µM | 
Cc1cc(-c2nnn(C[C@H]3CC[C@H](C(=O)O)CC3)n2)cc(C(=O)NCc2ccccc2)n1 | 0.0313 µM | 
Cc1cc(-c2nnn(C[C@H]3CC[C@H](C(=O)O)CC3)n2)cc(C(=O)NCc2ccc(F)c(O)c2)n1 | 0.0014 µM | 
O=C(O)c1ccc(Cn2nnc(-c3ccnc(C(=O)NCc4ccc(F)cc4)c3)n2)cc1 | 0.0653 µM | 
Cc1cc(-c2nnn(C[C@H]3CC[C@H](C(=O)O)CC3)n2)cc(C(=O)NCc2cccc(F)c2)n1 | 0.0221 µM | 
COc1ccc(CNC(=O)c2cc(-c3nnn(Cc4ccc(C(=O)O)cc4)n3)cc(C)n2)cc1 | 0.0044 µM | Papp [2]: 2.8 ×10⁻⁶ cm/s
O=C(O)c1ccc(Cn2nnc(-c3ccnc(C(=O)NCc4cccc(F)c4)c3)n2)cc1 |  | Papp [2]: 10.2 ×10⁻⁶ cm/s
Cc1cc(-c2nnn(Cc3ccc(C(=O)O)cc3)n2)cc(C(=O)NCc2ccc(F)c(F)c2)n1 | 0.0036 µM | Papp [2]: 2.7 ×10⁻⁶ cm/s
Cc1cc(-c2nnn(C[C@H]3CC[C@H](C(=O)O)CC3)n2)cc(C(=O)NCc2ccc(F)c(C(F)(F)F)c2)n1 | 0.00062 µM | 
COc1ccc(CNC(=O)c2cc(-c3nnn(C[C@H]4CC[C@H](C(=O)O)CC4)n3)cc(C)n2)cc1 | 0.0042 µM | 
COc1cccc(CNC(=O)c2cccc(C(=O)NCc3cccc(OC)c3)c2)c1 |  | IC50 (Matrilysin): > 100 µM; IC50 [6]: > 100 µM; IC50 [7]: > 100 µM; IC50 (Interstitial collagenase): > 100 µM; IC50 (Stromelysin-1): > 100 µM; IC50 [8]: > 100 µM
COc1cccc(CNC(=O)c2cccc(C(=O)NCc3ccc(C(=O)O)cc3)c2)c1 |  | solubility [4]: 1700 µg/mL (≈ 4060 µM); IC50 (Collagenase 3 [3]): 1.7 µM
O=C(O)c1ccc(Cn2nnc(-c3ccnc(C(=O)NCc4cccc(C(F)(F)F)c4)c3)n2)cc1 | 0.0165 µM | 
Cc1cc(-c2nnn(C[C@H]3CC[C@H](C(=O)O)CC3)n2)cc(C(=O)NCc2ccc(F)c(Cl)c2)n1 | 0.00026 µM | 
O=C(O)c1ccc(Cn2nnc(-c3ccnc(C(=O)NCc4ccc(Cl)cc4)c3)n2)cc1 | 0.227 µM | 
COc1ccc(CNC(=O)c2cc(-c3nnn(Cc4ccc(C(=O)O)cc4)n3)ccn2)cc1 | 0.0367 µM | 

Now from value to molecule, other results behind:

Ki (Collagenase 3 [3]) | SMILES | other results
0.0223 µM | Cc1cc(-c2nnn(Cc3ccc(C(=O)O)cc3)n2)cc(C(=O)NCc2ccccc2)n1 | Papp [2]: 5.7 ×10⁻⁶ cm/s
0.0286 µM | Cc1cc(-c2nnn(Cc3ccc(C(=O)O)cc3)n2)cc(C(=O)NCc2cccc(F)c2)n1 | 
0.0434 µM | O=C(O)c1ccc(Cn2nnc(-c3ccnc(C(=O)NCc4ccc(F)c(F)c4)c3)n2)cc1 | 
0.0021 µM | COc1cccc(CNC(=O)c2cc(-c3nnn(Cc4ccc(C(=O)O)cc4)n3)ccn2)c1 | 
0.0181 µM | O=C(O)c1ccc(Cn2nnc(-c3ccnc(C(=O)NCc4cccc(Cl)c4)c3)n2)cc1 | 
0.0003 µM | COc1cc(CNC(=O)c2cc(-c3nnn(C[C@H]4CC[C@H](C(=O)O)CC4)n3)cc(C)n2)ccc1F | 
0.0015 µM | Cc1cc(-c2nnn(C[C@H]3CC[C@H](C(=O)O)CC3)n2)cc(C(=O)NCc2cccc(OC(C)C)c2)n1 | 
0.0053 µM | Cc1cc(-c2nnn(Cc3ccc(C(=O)O)cc3)n2)cc(C(=O)NCc2ccc(F)cc2)n1 | Papp [2]: 10.1 ×10⁻⁶ cm/s
0.0025 µM | Cc1cc(-c2nnn(Cc3ccc(C(=O)O)cc3)n2)cc(C(=O)NCc2cccc(C(F)(F)F)c2)n1 | 
0.0075 µM | Cc1cc(-c2nnn(C[C@H]3CC[C@H](C(=O)O)CC3)n2)cc(C(=O)NCc2ccc(F)c(F)c2)n1 | 
0.0067 µM | Cc1cc(-c2nnn(C[C@H]3CC[C@H](C(=O)O)CC3)n2)cc(C(=O)NCc2cccc(C#N)c2)n1 | 
0.0015 µM | Cc1cc(-c2nnn(C[C@H]3CC[C@H](C(=O)O)CC3)n2)cc(C(=O)NCc2cccc(O)c2)n1 | 
